Laboratory results as given in patent publication US8859508B2, “Application of 5-methyl-1,3-benzenediol or derivatives thereof in the preparation of medicines and functional foods for treatment or prevention of depression” (Kunming Institute of Botany, Chinese Academy of Sciences, priority 2007, dated 2014).

Tests used:
Kunming mice [1] = assay: Morris water maze (MWM) in mice; assay type: in vivo, mouse
Protocol: Kunming mice (Certificate Number: A4CXK(Chuan)2003-16) from the Institute of Experimental Animals, People's Hospital of Sichuan Province, were used. They were 3-4 weeks old at the beginning of the experiment and weighed 25-30 g. ORG was prepared as described in Example 1. Animals were divided into drug administration groups with fluoxetine or different doses of ORG and a vehicle control group. The drug administration groups received 1.75 mg/kg or 3.5 mg/kg of ORG or 15 mg/kg of fluoxetine. Animals received a single i.p. injection of drug or vehicle 30 min either after training every day or 30 min before the retention test on day 8.
Morris water maze: The MWM was performed in a circular pool (100 cm in diameter and 36 cm in depth) with a hidden platform (10 cm×10 cm) that was approximately 1 cm below the water surface. The pool was surrounded by yellow curtains with different shaped markers hanging in each quadrant. The time spent to find the hidden platform and the trajectory of the mouse were recorded by computer. From days 1 to 7, mice were placed in the pool to find the fixed hidden platform. On day 8, the platform was removed and the time that the mouse spent in the target quadrant was counted in 1 min of free swimming.
(§1) Data analysis: The results of the test are expressed as mean±SEM. One-way ANOVA was used followed by the LSD test with SPSS 11 software. The significance level was set at P<0.05.

Kunming mice [2] = assay: Elevated plus maze (EPM) test in mice; assay type: in vivo, mouse; conditions: i.p. 24 h and 5 h before test
Protocol: (§2) Kunming mice (Certificate Number: A4CXK(Chuan)2003-16) from the Institute of Experimental Animals, People's Hospital of Sichuan Province, were used. They were 3-4 weeks old at the beginning of the experiment and weighed 25-30 g. ORG was prepared as described in Example 1. Animals were divided into drug administration groups with different doses of ORG, a vehicle control group, and a diazepam group (Jinyao Ltd. Co., Batch No. 106k1588) as positive control.
Elevated plus maze (EPM): The EPM had two open and two closed arms of equal size (30 cm long×5 cm wide). The two closed arms were connected by a central 5 cm×5 cm area. The whole maze was elevated to a height of 35 cm. ORG was administered i.p. 24 h and 5 h before the test started. Mice were individually placed in the center of the maze facing a closed arm. Each animal was tested for 5 min in a single session. The number of entrances into open arms, the number of entrances into closed arms, the total time spent in open arms, and the total time spent in closed arms were recorded; a standard of entry was defined as all limbs entering the arm. The number of entrances into open arms and time spent in open arms were the major indexes to evaluate the anxiety level of the animals, for the more entrances or time, the less the anxiety level.
as §1

[3] = tested on: LTP in the CA1 area of hippocampus; assay: Long-term potentiation (LTP) recording in hippocampal slices of footshock-stressed rats; assay type: cell-based, rat
Protocol: Rats weighing 250-300 g, from the Institute of Experimental Animals, People's Hospital of Sichuan Province, were used. ORG was prepared as described in Example 1. Fluoxetine was from Wuhan Yuancheng Technology Co. (Wuhan, China; Batch No: 1004-0801002).
Method of long-term potentiation (LTP) recording in hippocampus: Excitatory postsynaptic potentials (EPSPs) in the hippocampus were recorded to determine the anti-stress effect of ORG. Stress impairs LTP in the CAl area of hippocampus, and this can be rescued by anti-stress drugs. Rats were stressed by footshock as follows: 1 mA, 2 s, 5 times at intervals of 2 min. Hippocampal slices were prepared, incubated for 1 h at 34-36° C., and then kept at room temperature. ORG was applied in the bath solution. EPSPs mediated by NMDA and AMPA receptors in the CA1 region were recorded until the baseline was stable for 20 min. Then high frequency stimulation (HFS, 100 Hz, 100 pulses, 20 s interval) was used to induce LTP. The EPSPs were recorded for 1 h after HFS.
Data Analysis: Data are expressed as mean±SEM and LTP is expressed as the percentage of the average amplitude of the last 10 min relative to the baseline. One-way ANOVA was used followed by the LSD test with SPSS 11 software. The significance level was set at P<0.05.

rats [4] = assay: Subacute toxicity test of ORG in rats; assay type: in vivo
Protocol: Rats (Certificate Number: A4CXK(Chuan)2003-16) from the Institute of Experimental Animals, People's Hospital of Sichuan Province, were used. Their weight was 250-300 g. ORG was prepared as described in Example 1.
There was no significant difference between the two groups.

rats [5] = assay: Footshock-induced freezing behavior test in rats; assay type: in vivo, rat; conditions: i.p. 24 h and 5 h before test
Protocol: as §2
Footshock-induced freezing behavior: Animals received an i.p. injection of ORG or vehicle 24 h and 5 h before being placed in a standard conditioning chamber (Med Associates, USA) for a 10 min training session. Two, 4, 6, 8, and 10 min after the onset of the session, a footshock (0.8 mA, 2 s) was delivered through the grid floor of the chamber. The freezing time during the last 5 min were recorded. Rats were placed in the chamber again without footshock 24 h after the first training, and the freezing time was recorded.
as §1

serum corticosterone = assay: Serum corticosterone level (radioimmunoassay), non-stressed and elevated platform stressed rats; assay type: in vivo, rat
Sprague-Dawley rats = assay: Forced swim test (FST) in rats; assay type: in vivo, rat; conditions: for Immobility time (s) (mean ± SEM): i.g.
[6] = 1750 mg/kg orally once per day for 14 consecutive days

Cc1cc(O)cc(OC2OC(CO)C(O)C(O)C2O)c1 [ORG, orcinol-1-O-β-D-glucopyranoside]
Time spent in the right quadrant (s) (mean ± SEM) (Kunming mice [1]; i.p. 30 min before retrieval on day 8, 1.75 mg/kg): 29.38 ± 2.16 s
Time spent in the right quadrant (s) (mean ± SEM) (Kunming mice [1]; i.p. 30 min before retrieval on day 8, 3.5 mg/kg): 35.52 ± 2.43 s
Time spent in the right quadrant (s) (mean ± SEM) (Kunming mice [1]; i.p. daily 30 min after training, retention test day 8, 1.75 mg/kg): 28.18 ± 1.70 s
Time spent in the right quadrant (s) (mean ± SEM) (Kunming mice [1]; i.p. daily 30 min after training, retention test day 8, 3.5 mg/kg): 34.24 ± 2.01 s
Number of entries into open arms (mean ± SEM) (Kunming mice [2]; 5 mg/kg): 4.50 ± 0.58
Total time spent in the open arms (s) (mean ± SEM) (Kunming mice [2]; 5 mg/kg): 50.00 ± 8.99 s
Number of entries into open arms (mean ± SEM) (Kunming mice [2]; 20 mg/kg): 1.80 ± 0.79
Total time spent in the open arms (s) (mean ± SEM) (Kunming mice [2]; 20 mg/kg): 16.50 ± 3.60 s
Number of entries into open arms (mean ± SEM) (Kunming mice [2]; 100 mg/kg): 5.90 ± 0.57
Total time spent in the open arms (s) (mean ± SEM) (Kunming mice [2]; 100 mg/kg): 70.60 ± 11.56 s
LTP, Average of last 10 min (mean ± SEM) ([3]; control (non-stressed) slices incubated with 5 μM, percentage of average EPSP amplitude of last 10 min relative to baseline): 122.93 ± 3.75
LTP, Average of last 10 min (mean ± SEM) ([3]; footshock (FS) stressed rat slices incubated with 50 nM, percentage relative to baseline): 128.99 ± 7.30
LTP, Average of last 10 min (mean ± SEM) ([3]; footshock (FS) stressed rat slices incubated with 5 μM, percentage relative to baseline): 189.56 ± 23.6
subacute toxicity: appearance, behavior, mental status, appetite, hair, color, breathing (rats [4]; [6]): nothing abnormal was found
subacute toxicity: survival (rats [4]; [6]): All rats survived
subacute toxicity: weight gain (rats [4]; [6]): the weight gain was normal
subacute toxicity: pathological section of visceral organs (rats [4]; 1750 mg/kg orally once per day for 14 days, sacrificed on day 14): no evident abnormalities
Duration of freezing (s) (mean ± S.E.) (rats [5]; 5 mg/kg): 203.90 ± 34.09 s
Duration of freezing (s) (mean ± S.E.) (rats [5]; 20 mg/kg): 100.70 ± 21.78 s
Concentration of serum corticosterone (ng/ml) (mean ± SEM) (serum corticosterone; non-stress rats, i.p., 3.5 mg/kg): 166.06 ± 41.90 ng/mL
Concentration of serum corticosterone (ng/ml) (mean ± SEM) (serum corticosterone; non-stress rats, i.p., 14 mg/kg): 70.04 ± 14.75 ng/mL
Concentration of serum corticosterone (ng/ml) (mean ± SEM) (serum corticosterone; non-stress rats, i.p., 28 mg/kg): 63.13 ± 22.21 ng/mL
Concentration of serum corticosterone (ng/ml) (mean ± SEM) (serum corticosterone; non-stress rats, i.p., blood 1 h after injection, 0.875 mg/kg): 209.02 ± 52.77 ng/mL
Concentration of serum corticosterone (ng/ml) (mean ± SEM) (serum corticosterone; stress rats (elevated platform 30 min, 1 h after i.p. injection), 0.875 mg/kg): 349.85 ± 61.75 ng/mL
Concentration of serum corticosterone (ng/ml) (mean ± SEM) (serum corticosterone; stress rats, i.p., 3.5 mg/kg): 263.63 ± 49.14 ng/mL
Concentration of serum corticosterone (ng/ml) (mean ± SEM) (serum corticosterone; stress rats, i.p., 14 mg/kg): 237.63 ± 32.45 ng/mL
Concentration of serum corticosterone (ng/ml) (mean ± SEM) (serum corticosterone; stress rats, i.p., 28 mg/kg): 137.41 ± 26.84 ng/mL
dose of the best efficacy (Sprague-Dawley rats; ORG administered orally): 4 mg/kg
ED50 (Sprague-Dawley rats; Rattus norvegicus, po, ORG administered orally): ~0.22 mg/kg
Immobility time (s) (mean ± SEM) (Sprague-Dawley rats; 0.0625 mg/kg, given at 0 and 19 h after pre-test swim): 187.20 ± 11.97 s
Immobility time (s) (mean ± SEM) (Sprague-Dawley rats; 0.125 mg/kg): 181.50 ± 8.19 s
Immobility time (s) (mean ± SEM) (Sprague-Dawley rats; 0.1875 mg/kg): 138.90 ± 13.31 s
Immobility time (s) (mean ± SEM) (Sprague-Dawley rats; 0.25 mg/kg): 121.05 ± 9.44 s
Immobility time (s) (mean ± SEM) (Sprague-Dawley rats; 0.5 mg/kg): 113.70 ± 6.74 s
Immobility time (s) (mean ± SEM) (Sprague-Dawley rats; 1 mg/kg): 96.87 ± 7.40 s
Immobility time (s) (mean ± SEM) (Sprague-Dawley rats; 2 mg/kg): 91.60 ± 7.06 s
Immobility time (s) (mean ± SEM) (Sprague-Dawley rats; 4 mg/kg): 84.40 ± 9.20 s
Immobility time (s) (mean ± SEM) (Sprague-Dawley rats; 8 mg/kg): 94.30 ± 9.86 s
Immobility time (s) (mean ± SEM) (Sprague-Dawley rats; 16 mg/kg): 91.40 ± 11.36 s
Immobility time (s) (mean ± SEM) (Sprague-Dawley rats; 32 mg/kg): 107.26 ± 10.74 s
Immobility time (s) (mean ± SEM) (Sprague-Dawley rats; 64 mg/kg): 105.90 ± 19.77 s
Immobility time (s) (mean ± SEM) (Sprague-Dawley rats; 128 mg/kg): 103.00 ± 17.42 s
